These results are taken from patent publication US4992432A, “3-phenyl-thiazepinones as calcium regulating agents” (Hoffmann-La Roche Inc., priority 1990, dated 1991).

In this test the test system is isolated rat aortic strips. The test can be described thus: Contraction of Rat Aortic Strips (inhibition of calcium-induced contracture, calcium channel blocking activity). The format is cell-based. Conditions: for inhibition at 0.3 µM: Rattus norvegicus, 3×10^-7 M compound, 15 minutes prior to and during calcium curve, 2 mM Ca++, 45 mM potassium, as compared to the control, read-out: % Inhibition (effect on the 2mM Ca++ contracture); for reduction in responsiveness to / contracture at 2 mM Ca++ (in words): 3×10^-7 M, 15 minute exposure. The protocol:
The calcium channel blocking activity of compounds of formula I was determined by measuring the effect of compounds of formula I on isolated rat aortic strips. Contraction of Rat Aortic Strips Aortas were excised from rats, placed in Krebs-Henseleit solution, modified so as to be calcium free, with a depolarized level of potassium (45 mM), and 0.02 mM EDTA. The aorta was then helically cut into a strip. This strip was then divided into four equal segments which were hung in isolated tissue chambers, attached to the appropriate tranducers and subjected to 500 mg basal tension. After a period of stabilization under these conditions, calcium was introduced into the bath and the tissues contracted in a concentration dependent manner. When no calcium is available in the bathing media, and the potential dependent calcium channels are opened by the high potassium level, contractility is dependent on the level of calcium introduced into the bath. By adding increments of calcium into the bath, a reproducible concentration-dependent contracture can be obtained. […] The number for untreated controls was derived by measuring contracture for two runs where calcium alone was added. […] The inhibition in contractile response at 2mMCa++was measured as a per cent inhibition as compared to the control.

Where a name gives a salt, the structure may show the parent alone.

Usually inhibition stands for the change of the read-out against control, counted positive when it falls. Take `COc1ccc([C@H]2SC=C(c3ccccc3)N(CCN(C)C)C(=O)[C@H]2OC(C)=O)cc1` [F, (-)-cis-6-(Acetyloxy)-6,7-dihydro-7-(4-methoxyphenyl) -4-[2-(dimethylamino)ethyl]-3-phenyl-1,4-thiazepin-5 (4H)-one [S-(R,* R,*)]-2,3-dihydroxybutanedioic acid salt]: the inhibition at 0.3 µM is -9.1%.
With `COc1ccc([C@@H]2SC=C(c3ccccc3)N(CCN(C)C)C(=O)[C@@H]2O)cc1` [E], the inhibition at 0.3 µM is -13%.
As for `COc1ccc([C@@H]2SC=C(c3ccccc3)N(CCN(C)C)C(=O)[C@@H]2OC(C)=O)cc1` (relative stereo) [Compound B, cis-rac.6-(Acetyloxy)-6,7-dihydro-7-(4-methoxyphenyl) -4-[2-(dimethylamino)ethyl]-3-phenyl-1,4-thiazepin-5(4H)-one hydrochloride], the inhibition at 0.3 µM was -26.8%.
`COc1ccc([C@@H]2SC=C(c3ccccc3)N(CCN(C)C)C(=O)[C@@H]2OC)cc1` (relative stereo) [C, cis-rac.6,7-Dihydro-6-methoxy-7-(4-methoxyphenyl)-4[2-(dimethylamino)ethyl-3-phenyl-1,4-thiazepin-5(4H)-one hydrochloride]: the inhibition at 0.3 µM is -22.1%.
On the same count and under the same terms, for `COc1ccc([C@@H]2SC=C(c3ccccc3)N(CCN(C)C)C(=O)[C@H]2OC(C)=O)cc1` (racemic) [G, trans-rac.-6-(Acetyloxy)-6,7-dihydro-7-(4-methoxy-phenyl)-4-[2-(dimethylamino)ethyl]-3-phenyl-1,4-thiazepin-5(4H)-one hydrochloride] the value was -8.4%; for `COc1ccc([C@H]2SC=C(c3ccccc3)N(CCN(C)C)C(=O)[C@H]2O)cc1` (racemic) [D, cis-rac.-6,7-Dihydro-6-hydroxy-7-(4-methoxyphenyl)-4[2-(dimethylamino)ethyl]-3-phenyl-1,4-thiazepin-5(4H)-one hydrochloride], -16.5%.
Turning to `COc1ccc([C@@H]2SC=C(c3ccccc3)N(CCN(C)C)C(=O)[C@@H]2OC(C)=O)cc1` [Compound A, (+)-cis-6-(Acetyloxy)-6,7-dihydro-7-(4-methoxyphenyl) 4-[2-(dimethylamino)ethyl]-3-phenyl-1,4-thiazepin-5-(4H)-one hydrochloride], the “reduction in responsiveness to / contracture at 2 mM Ca++ (in words)” value is recorded as “inhibited almost two thirds of the contracture” and the inhibition at 0.3 µM was -63%.
Consider `COc1ccc([C@@H]2Sc3ccccc3N(CCN(C)C)C(=O)[C@@H]2OC(C)=O)cc1` [Diltiazem, reference compound], for which the “reduction in responsiveness to / contracture at 2 mM Ca++ (in words)” value is given as “marked reduction in responsiveness” and the inhibition at 0.3 µM is -77%.
For the compound `COc1ccc([C@@H]2SC=C(c3ccccc3)N(CCN(C)C)C(=O)[C@H]2O)cc1` (racemic) [H, trans-rac.-6,7-Dihydro-6-hydroxy-7-(4-methoxyphenyl) -4-[2-(dimethylamino)ethyl]-3-phenyl-1,4-thiazepin-5 (4H)-one (E)-2-butenedioate], the inhibition at 0.3 µM is -5.6%.
